Experimental findings from ChEMBL document CHEMBL1157938, “Cytotoxicity and inhibition of DNA topoisomerase I of polyhydroxylated triterpenoids and triterpenoid glycosides” (Bioorg Med Chem Lett, 2010) are described below.

Structures are written as SMILES. Calls of active or inactive are those of the source. The rule behind the calls is not given here.

In general, IC50 refers to the concentration that inhibits the measured activity by half. High values mean lower potency, low ones higher potency. The term GI50 denotes the concentration at which growth is held to half of that of the control.

Series [1] concerns the target T1, DNA topoisomerase 1 (Homo sapiens, UniProt P11387).
T1 sequence (P11387 whole entry): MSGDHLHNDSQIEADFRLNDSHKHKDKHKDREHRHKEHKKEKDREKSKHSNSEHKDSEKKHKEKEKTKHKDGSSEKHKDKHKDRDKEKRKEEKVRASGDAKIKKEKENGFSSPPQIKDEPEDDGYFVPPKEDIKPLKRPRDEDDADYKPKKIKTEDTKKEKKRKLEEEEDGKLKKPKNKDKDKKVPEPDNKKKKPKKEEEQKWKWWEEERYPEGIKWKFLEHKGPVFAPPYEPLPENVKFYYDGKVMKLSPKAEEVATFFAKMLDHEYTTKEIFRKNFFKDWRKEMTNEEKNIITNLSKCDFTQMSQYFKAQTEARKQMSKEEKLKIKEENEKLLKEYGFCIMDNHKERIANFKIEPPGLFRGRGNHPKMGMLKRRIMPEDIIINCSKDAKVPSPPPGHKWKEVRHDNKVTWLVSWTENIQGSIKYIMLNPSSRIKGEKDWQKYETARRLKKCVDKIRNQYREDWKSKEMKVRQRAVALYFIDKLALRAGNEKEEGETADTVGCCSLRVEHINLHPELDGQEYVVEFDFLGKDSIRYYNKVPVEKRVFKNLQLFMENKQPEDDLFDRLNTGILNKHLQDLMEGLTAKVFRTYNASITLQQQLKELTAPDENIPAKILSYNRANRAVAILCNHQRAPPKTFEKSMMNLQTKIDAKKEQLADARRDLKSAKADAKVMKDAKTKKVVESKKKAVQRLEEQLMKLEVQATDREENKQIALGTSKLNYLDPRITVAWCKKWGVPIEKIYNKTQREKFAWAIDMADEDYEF
The experiment in a line: Inhibition of human DNA topoisomerase 1-mediated relaxation of supercoiled DNA by gel electrophoresis.

In series [2] the target is DNA topoisomerase 2-alpha (Homo sapiens, UniProt P11388). The experiment in a line: Inhibition of human DNA topoisomerase 2-mediated relaxation of supercoiled DNA by gel electrophoresis.
Chain of DNA topoisomerase 2-alpha (P11388 whole entry): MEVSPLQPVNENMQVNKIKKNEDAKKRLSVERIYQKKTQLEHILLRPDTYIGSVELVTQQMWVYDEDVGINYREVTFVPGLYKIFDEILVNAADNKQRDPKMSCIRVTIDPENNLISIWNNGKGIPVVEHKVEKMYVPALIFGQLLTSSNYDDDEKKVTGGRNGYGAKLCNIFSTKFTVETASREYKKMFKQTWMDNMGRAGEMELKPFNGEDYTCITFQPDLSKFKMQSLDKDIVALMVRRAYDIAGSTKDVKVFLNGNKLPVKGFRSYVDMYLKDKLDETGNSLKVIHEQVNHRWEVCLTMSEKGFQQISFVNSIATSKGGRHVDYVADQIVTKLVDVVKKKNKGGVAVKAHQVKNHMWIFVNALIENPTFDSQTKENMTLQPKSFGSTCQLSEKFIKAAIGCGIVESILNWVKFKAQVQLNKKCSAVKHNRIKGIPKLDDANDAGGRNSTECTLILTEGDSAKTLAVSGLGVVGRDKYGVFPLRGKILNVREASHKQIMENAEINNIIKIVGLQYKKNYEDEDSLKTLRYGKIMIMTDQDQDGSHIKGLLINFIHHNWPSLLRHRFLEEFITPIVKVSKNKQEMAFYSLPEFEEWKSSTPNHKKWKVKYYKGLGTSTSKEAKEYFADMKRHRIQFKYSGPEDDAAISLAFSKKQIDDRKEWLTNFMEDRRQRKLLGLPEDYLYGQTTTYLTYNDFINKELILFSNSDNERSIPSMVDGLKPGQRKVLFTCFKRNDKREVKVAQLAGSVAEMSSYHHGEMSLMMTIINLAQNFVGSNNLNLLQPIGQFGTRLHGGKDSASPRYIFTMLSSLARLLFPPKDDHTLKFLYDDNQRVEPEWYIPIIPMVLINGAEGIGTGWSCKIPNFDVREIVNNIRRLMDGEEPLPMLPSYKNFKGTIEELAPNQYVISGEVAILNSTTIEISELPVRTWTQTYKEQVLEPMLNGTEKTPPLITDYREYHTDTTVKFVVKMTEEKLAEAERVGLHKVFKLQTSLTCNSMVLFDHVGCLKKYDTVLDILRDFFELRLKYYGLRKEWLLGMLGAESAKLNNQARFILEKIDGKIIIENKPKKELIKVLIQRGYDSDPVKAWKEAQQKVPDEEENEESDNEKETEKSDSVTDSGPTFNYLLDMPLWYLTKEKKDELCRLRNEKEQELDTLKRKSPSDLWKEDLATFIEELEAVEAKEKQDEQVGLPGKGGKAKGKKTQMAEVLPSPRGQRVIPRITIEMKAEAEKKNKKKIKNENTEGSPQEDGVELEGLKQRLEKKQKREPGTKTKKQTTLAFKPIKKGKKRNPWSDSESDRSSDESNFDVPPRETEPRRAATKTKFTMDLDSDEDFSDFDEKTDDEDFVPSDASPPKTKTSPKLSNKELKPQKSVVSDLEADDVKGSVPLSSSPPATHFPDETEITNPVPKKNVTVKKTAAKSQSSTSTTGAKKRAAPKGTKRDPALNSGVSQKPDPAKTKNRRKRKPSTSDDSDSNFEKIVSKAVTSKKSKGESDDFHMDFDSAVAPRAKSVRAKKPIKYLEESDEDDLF
The target of series [3] is T2, DNA topoisomerase 1 (Homo sapiens) (UniProt P11387).
T2 sequence (whole entry): T1 sequence (P11387 whole entry)
Put plainly: Inhibition of human DNA topoisomerase 1-mediated relaxation of supercoiled DNA at 312 uM.

The subject of series [4] is A549. Put plainly: Cytotoxicity against human A549 cells after 48 hrs by WST8 assay. It is filed as functional. As to conditions: A549, 48 h.
The test system of series [5] is HL-60. The experiment in a line: Cytotoxicity against human HL60 cells after 48 hrs by WST8 assay. Type of series: functional. The settings on record: HL-60, 48 h. (In general: Tetrazolium assays rely on reduction of a dye to a coloured formazan, in cell work by metabolically active cells.)
For series [6], the system named is PANC-1. The experiment in a line: Cytotoxicity against human PANC1 cells at 25 uM after 48 hrs by WST8 assay. It is filed as functional, cell-based.
Series [7] deals with T2, DNA topoisomerase 1 (Homo sapiens). Put plainly: Inhibition of human DNA topoisomerase 1 assessed as stabilize DNA-enzyme covalent complex.
For series [8], the target named is T1, DNA topoisomerase 1. The experiment in a line: Inhibition of human DNA topoisomerase 1 at free enzyme state.
Series [9] addresses T2, DNA topoisomerase 1 (Homo sapiens). The experiment in a line: Inhibition of human DNA topoisomerase 1 assessed as intercalate into DNA at 312 uM.
The subject of series [10] is MRC5. The experiment in a line: Cytotoxicity against human MRC5 cells at 25 uM after 48 hrs by WST8 assay. It is filed as cell-based. As to conditions: mrc5, 48 h.
The target in series [11] is T2, DNA topoisomerase 1 (Homo sapiens). The experiment in a line: Inhibition of human DNA topoisomerase 1-mediated relaxation of supercoiled DNA at 450 uM.
The test system of series [12] is PC-3. Put plainly: Cytotoxicity against human PC3 cells after 48 hrs by WST8 assay. It is filed as functional. The settings on record: PC-3, 48 h.
For series [13], the target named is T2, DNA topoisomerase 1 (Homo sapiens). Put plainly: Inhibition of human DNA topoisomerase 1 assessed as prevention of DNA-enzyme complex formation.
For series [14] the target is unchanged. Put plainly: Inhibition of human DNA topoisomerase 1-mediated relaxation of supercoiled DNA at >125 uM.
Series [15] deals with PC-3. The experiment in a line: Cytotoxicity against human PC3 cells at 25 uM after 48 hrs by WST8 assay. Type of series: functional, cell-based.
The subject of series [16] is A549. Put plainly: Cytotoxicity against human A549 cells at 25 uM after 48 hrs by WST8 assay. Type of series: functional, cell-based.
Series [17] relates to HL-60. Put plainly: Cytotoxicity against human HL60 cells at 25 uM after 48 hrs by WST8 assay. Type of series: functional, cell-based.
Series [18] is described as follows: Cytotoxicity against human MRC5 cells after 48 hrs by WST8 assay. It is filed as cell-based.
The test system of series [19] is PANC-1. Put plainly: Cytotoxicity against human PANC1 cells after 48 hrs by WST8 assay. As to conditions: PANC-1, 48 h. Type of series: functional.
Series [20] addresses T2, DNA topoisomerase 1 (Homo sapiens). The experiment in a line: Inhibition of human DNA topoisomerase 1-mediated relaxation of supercoiled DNA at 63 to 125 uM.

`C/C=C(/C)C(=O)O[C@H]1[C@H](OC(=O)C(C)C)[C@]2(CO)[C@H](O)[C@H](O)[C@]3(C)C(=CC[C@@H]4[C@@]5(C)CC[C@H](O[C@@H]6O[C@H](C(=O)O)[C@@H](O)[C@H](O[C@@H]7O[C@@H](CO)[C@H](O)[C@H]7O)[C@H]6O[C@@H]6O[C@H](CO)[C@@H](O)[C@H](O)[C@H]6O)[C@](C)(CO)[C@@H]5CC[C@]43C)[C@@H]2CC1(C)C` [AESCULIOSIDE IIIB]: the results for the IC50 in [1], in series [2] and in series [8] were 160 µM, over 250 µM and 23.8 µM, respectively. In addition, the inhibition result in series [3] and in series [7] was “inactive” in each case. The concentration for 50% growth inhibition (GI50) in series [4] amounted to 11.2 µM; in series [5], 10.9 µM; in series [12] it was 9.93 µM. In addition, in series [6], the “growth inhibition (GI)” value is “inactive”. Moreover, in series [9], the result was Active. The “growth inhibition (GI)” value in [10] is listed as “Not Active”. The inhibition result in [11] and in [13] was “Active” each time.

In the case of `C/C=C(\C)C(=O)O[C@H]1[C@H](OC(C)=O)[C@]2(CO)[C@H](O)[C@H](O)[C@]3(C)C(=CC[C@@H]4[C@@]5(C)CC[C@H](O[C@@H]6O[C@H](C(=O)O)[C@@H](O)[C@H](O[C@@H]7O[C@@H](CO)[C@H](O)[C@H]7O)[C@H]6O[C@@H]6O[C@H](CO)[C@@H](O)[C@H](O)[C@H]6O)[C@](C)(CO)[C@@H]5CC[C@]43C)[C@@H]2CC1(C)C` [AESCULIOSIDE IIE], the inhibition entry in series [14] is “Active”. Moreover, the “growth inhibition (GI)” value in [6], in series [15], in [16] and in series [17] was “inactive” in each case. Also, the “growth inhibition (GI)” value in series [10] was “Not Active”.

Take `C/C=C(/C)C(=O)O[C@H]1[C@H](O)[C@]2(CO)[C@H](O)C[C@]3(C)C(=CC[C@@H]4[C@@]5(C)CC[C@H](O[C@@H]6O[C@H](C(=O)O)[C@@H](O)[C@H](O[C@@H]7O[C@@H](CO)[C@H](O)[C@H]7O)[C@H]6O[C@@H]6O[C@H](CO)[C@H](O)[C@H](O)[C@H]6O)C(C)(C)[C@@H]5CC[C@]43C)[C@@H]2CC1(C)C` [AESCULIOSIDE IIC]: the IC50 in series [1] is 111 µM; in series [2], over 250 µM; in [8], 23.8 µM. Further, the inhibition result in [3] and in series [7] was “inactive” each time. Further, the 50% growth inhibitory concentration (GI50) in series [4] was 8.67 µM; in series [5] it was 5.75 µM; in [12] it was 16.3 µM. The “growth inhibition (GI)” value in [6] is “inactive”. The result in [9] was Active. Moreover, the 50% growth inhibitory concentration (GI50) at 48 h in series [18] was found to be 11.2 µM. The inhibition result in series [11] and in series [13] was “Active” in each case.

With `C/C=C(/C)C(=O)O[C@H]1[C@H](O)[C@]2(COC(C)=O)[C@H](O)C[C@]3(C)C(=CC[C@@H]4[C@@]5(C)CC[C@H](O[C@@H]6O[C@H](C(=O)O)[C@@H](O)[C@H](O[C@@H]7O[C@@H](CO)[C@H](O)[C@H]7O)[C@H]6O[C@@H]6O[C@H](CO)[C@@H](O)[C@H](O)[C@H]6O)[C@](C)(CO)[C@@H]5CC[C@]43C)[C@@H]2CC1(C)C` [AESCULIOSIDE IIIA], the results for the half-maximal inhibitory concentration (IC50) in series [1], in series [2] and in series [8] were 119 µM, over 250 µM and 23.8 µM, respectively. The GI50 in series [19] came to 16.7 µM; in series [4], 9.48 µM; in series [5] it was 7.2 µM; in series [12], 10.1 µM. In addition, the inhibition entry in series [3] and in [7] was “inactive” each time. Also, in series [9], the outcome was Active. Further, in [18], it took 8.65 µM to inhibit growth by half (GI50 at 48 h). Moreover, the inhibition result in [11] and in series [13] was “Active” each time.

Consider `C/C=C(\C)C(=O)O[C@H]1[C@H](OC(=O)C(C)CC)[C@]2(CO)[C@H](O)[C@H](O)[C@]3(C)C(=CC[C@@H]4[C@@]5(C)CC[C@H](O[C@@H]6O[C@H](C(=O)O)[C@@H](O)[C@H](O[C@@H]7O[C@@H](CO)[C@H](O)[C@H]7O)[C@H]6O[C@@H]6O[C@H](CO)[C@H](O)[C@H](O)[C@H]6O)C(C)(C)[C@@H]5CC[C@]43C)[C@@H]2CC1(C)C` (stereo not given in full) [AESCULIOSIDE IIIC], for which the IC50 is 132 µM in series [1] and over 250 µM in series [2]. Besides, the GI50 was 18.5 µM in series [19], 17.6 µM in series [4], 13.6 µM in series [5] and 12.5 µM in series [12]. Also, the result in series [9] was Active. In addition, in series [10], the “growth inhibition (GI)” value is given as “Not Active”. For the same molecule, in [11], the inhibition entry was “Active”.

For the molecule `C/C=C(/C)C(=O)O[C@H]1[C@H](OC(C)=O)[C@]2(CO)[C@H](O)C[C@]3(C)C(=CC[C@@H]4[C@@]5(C)CC[C@H](O[C@@H]6O[C@H](C(=O)O)[C@@H](O)[C@H](O[C@@H]7O[C@@H](CO)[C@H](O)[C@H]7O)[C@H]6O[C@@H]6O[C@H](CO)[C@H](O)[C@H](O)[C@H]6O)C(C)(C)[C@@H]5CC[C@]43C)[C@@H]2CC1(C)C` [AESCULIOSIDE IIK], the inhibition result in [14] is “Active”. Also, the concentration for half-maximal inhibition (IC50) in series [1] and in [2] was over 250 µM throughout. Further, the GI50 is 21.5 µM in [19], 15.1 µM in series [4], 8.75 µM in series [5] and 8.35 µM in series [12]. The molecule further displayed a concentration for 50% growth inhibition (GI50) at 48 h in series [18] of 9.89 µM.

Take `C/C=C(\C)C(=O)O[C@H]1[C@H](OC(=O)/C(C)=C/C)[C@]2(CO)[C@H](O)[C@H](O)[C@]3(C)C(=CC[C@@H]4[C@@]5(C)CC[C@H](O[C@@H]6O[C@H](C(=O)O)[C@@H](O)[C@H](O[C@@H]7O[C@@H](CO)[C@H](O)[C@H]7O)[C@H]6O[C@@H]6O[C@H](CO)[C@@H](O)[C@H](O)[C@H]6O)C(C)(C)[C@@H]5CC[C@]43C)[C@@H]2CC1(C)C` [AESCULIOSIDE IIIF]: the inhibition result in [14] and in series [20] was “Active” each time. Also, the concentration for half-maximal inhibition (IC50) in [1] is 53.7 µM; in [2], over 250 µM. In addition, the concentration for 50% growth inhibition (GI50) in series [19] is 23.5 µM; in series [4], over 25 µM; in [5], 14.2 µM; in series [12] it was 11.7 µM. In series [18], this molecule displayed a GI50 at 48 h of over 25 µM.

On to `C/C=C(/C)C(=O)O[C@H]1[C@H](O)[C@]2(CO)[C@H](O)[C@H](O)[C@]3(C)C(=CC[C@@H]4[C@@]5(C)CC[C@H](O[C@@H]6O[C@H](C(=O)O)[C@@H](O)[C@H](O[C@@H]7O[C@@H](CO)[C@H](O)[C@H]7O)[C@H]6O[C@@H]6O[C@H](CO)[C@H](O)[C@H](O)[C@H]6O)C(C)(C)[C@@H]5CC[C@]43C)[C@@H]2CC1(C)C` [AESCULIOSIDE IIA], for which the IC50 in series [1] was 109 µM; in series [2], over 250 µM. Further, the inhibition result in series [3] is “inactive”. Moreover, the “growth inhibition (GI)” value in series [6], in series [15], in series [16] and in [17] was “inactive” each time. Further, in series [10], the “growth inhibition (GI)” value was “Not Active”. Moreover, in series [11], the inhibition result is “Active”.
